From patent US20110230536A1, “PHENYLPYRAZOLE INHIBITORS OF STORE OPERATED CALCIUM RELEASE” (CalciMedica, Inc., priority 2008, published 2011)

Tested on: Jurkat cells and colon cancer cells
Assay: not given
Settings: cited from earlier work

Row | SMILES | inhibition of proliferation
1 | Cc1nnsc1C(=O)Nc1ccc(-n2nc(C(F)(F)F)cc2C(F)(F)F)cc1 [BTP-2] | inhibits

Target: STIM1 and Orai1 in HEK293 cells (Homo sapiens, UniProt Q96D31)
Assay: not given
Settings: HEK293 cells coexpressing STIM1 and Orai1; cited from earlier work

Chain of STIM1 and Orai1 in HEK293 cells (Q96D31 whole entry): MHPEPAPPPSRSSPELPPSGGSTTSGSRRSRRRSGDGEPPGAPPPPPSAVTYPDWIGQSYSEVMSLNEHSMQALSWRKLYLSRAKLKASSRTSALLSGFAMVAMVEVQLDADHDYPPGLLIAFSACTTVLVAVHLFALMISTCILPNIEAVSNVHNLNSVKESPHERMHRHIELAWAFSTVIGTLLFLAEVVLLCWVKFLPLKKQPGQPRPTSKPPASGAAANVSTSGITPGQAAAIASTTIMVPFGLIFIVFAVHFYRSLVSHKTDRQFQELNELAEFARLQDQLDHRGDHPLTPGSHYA

Row | SMILES | block of store-dependent Ca2+ entry
2 | NCCOB(c1ccccc1)c1ccccc1 [2-aminoethoxydiphenylborate] | completely blocked

Tested on: JR251 or RBL cells
Assay: Fluorescence-based assay of store-operated calcium entry (JR251 or RBL cells)
Assay type: cell-based
Settings: in either JR251 or RBL cells, or both
Experimental: Fluorescence-based assays are used for screening the compounds described herein, such as compounds of Formulas (I) and (II) which modulate intracellular calcium. […]
B. Fluorescence-based Assay of Store-Operated Calcium Entry in RBL-2H3 Cells.
RBL-2H3 cells are obtained from ATCC and maintained in complete medium with 10% FBS at 37° C./6% CO2.
The day prior to performing the assay, RBL-2H3 cells are plated in 50 μL of complete medium in a 384 well plate. Cells are grown at 37° C./6% CO2 overnight and grow to 50-60% confluence by the next day. On the assay day, 1.5 μM Fluo-4-AM dye (Invitrogen) in complete medium is added and incubated for 1 hour at RT. Cells are washed twice in Ca^2+-free HBSS buffer and 35 μL Ca^2+-free HBSS buffer is added to each well. 10 μL of a test compound prepared in a Ca^2+-free HBSS solution at 4.5× of the desired concentration is added to a well and incubated for 5 minutes at RT. 10 μL of thapsigargin prepared in a Ca^2+-free HBSS solution at 5.5× of the desired concentration (5.5 uM) is added to each well and incubated for an additional 25 minutes. The initial baseline fluorescence signal is measured with a FLIPR^384 (Molecular Devices) plate reader. 5 μL of 12× calcium in HBSS (12 mM) is added and changes in cellular fluorescence are measured with the FLIPR^384 plate reader. In each well, the change in the fluorescent signal as a function of time due to calcium entry into the cell is determined by calculating the difference between the fluorescent signal measured 7 seconds after calcium addition and the initial baseline fluorescence signal at time zero (t=0). This parameter is designated Upslope. The IC50 value is calculated as the concentration at which 50% of the Upslope is inhibited. […]

Row | SMILES | IC50 [µM]
3 | Cc1cc(C(F)(F)F)n(-c2ccc(C(=O)Nc3ccccc3Cl)cc2N)n1 [3-amino-N-(2-chlorophenyl)-4-(3-methyl-5-(trifluoromethyl)-1H-pyrazol-1-yl)benzamide] | < 10
4 | Cc1cc(C(F)(F)F)nn1-c1ccc(C(=O)Nc2ccccc2Cl)cc1N [3-amino-N-(2-chlorophenyl)-4-(5-methyl-3-(trifluoromethyl)-1H-pyrazol-1-yl)benzamide] | < 10
5 | Cc1cc(C(F)(F)F)nn1-c1ccc(C(=O)Nc2ccc(Cl)cc2)cc1N [3-amino-N-(4-chlorophenyl)-4-(5-methyl-3-(trifluoromethyl)-1H-pyrazol-1-yl)benzamide] | < 10
6 | Cc1cc(C(F)(F)F)n(-c2ccc(NC(=O)c3ccc(Cl)cc3)cc2[N+](=O)[O-])n1 [4-Chloro-N-(4-(3-methyl-5-(trifluoromethyl)-1H-pyrazol-1-yl)-3-nitrophenyl)benzamide] | < 10
7 | CCc1cc(CC)n(-c2ccc(NC(=O)c3ccc(Cl)cc3)cc2[N+](=O)[O-])n1 [4-chloro-N-(4-(3,5-diethyl-1H-pyrazol-1-yl)-3-nitrophenyl)benzamide] | < 10
8 | COc1ccc(C(=O)Nc2ccc(-n3nc(C)cc3C(F)(F)F)c([N+](=O)[O-])c2)cc1 [4-methoxy-N-(4-(3-methyl-5-(trifluoromethyl)-1H-pyrazol-1-yl)-3-nitrophenyl)benzamide] | < 10
9 | COc1ccc(C(=O)Nc2ccc(-n3nc(C(F)(F)F)cc3C)c([N+](=O)[O-])c2)cc1 [4-methoxy-N-(4-(5-methyl-3-(trifluoromethyl)-1H-pyrazol-1-yl)-3-nitrophenyl)benzamide] | < 10
10 | COc1cc(C(=O)Nc2ccccc2Cl)ccc1-n1nc(C)cc1C(F)(F)F [N-(2-chlorophenyl)-3-methoxy-4-(3-methyl-5-(trifluoromethyl)-1H-pyrazol-1-yl)benzamide] | < 10
11 | COc1cc(C(=O)Nc2ccccc2Cl)ccc1-n1nc(C(F)(F)F)cc1C [N-(2-chlorophenyl)-3-methoxy-4-(5-methyl-3-(trifluoromethyl)-1H-pyrazol-1-yl)benzamide] | < 10
12 | Cc1cc(C(F)(F)F)n(-c2ccc(C(=O)Nc3ccccc3Cl)cc2[N+](=O)[O-])n1 [N-(2-chlorophenyl)-4-(3-methyl-5-(trifluoromethyl)-1H-pyrazol-1-yl)-3-nitrobenzamide] | < 10
13 | Cc1cc(C(F)(F)F)nn1-c1ccc(C(=O)Nc2ccccc2Cl)cc1[N+](=O)[O-] [N-(2-chlorophenyl)-4-(5-methyl-3-(trifluoromethyl)-1H-pyrazol-1-yl)-3-nitrobenzamide] | < 10
14 | COc1ccc(C(=O)Nc2ccc(-n3nc(C)cc3C(F)(F)F)c(N)c2)cc1 [N-(3-amino-4-(3-methyl-5-(trifluoromethyl)-1H-pyrazol-1-yl)phenyl)-4-methoxybenzamide] | < 10
15 | COc1ccc(C(=O)Nc2ccc(-n3nc(C(F)(F)F)cc3C)c(N)c2)cc1 [N-(3-amino-4-(5-methyl-3-(trifluoromethyl)-1H-pyrazol-1-yl)phenyl)-4-methoxybenzamide] | < 10
16 | COc1ccc(C(=O)Nc2ccc(-n3nc(-c4ccccc4)cc3C)c(N)c2)cc1 [N-(3-amino-4-(5-methyl-3-phenyl-1H-pyrazol-1-yl)phenyl)-4-methoxybenzamide] | < 10
17 | Cc1cc(-c2ccccc2)nn1-c1ccc(NC(=O)c2cccs2)cc1N [N-(3-amino-4-(5-methyl-3-phenyl-1H-pyrazol-1-yl)phenyl)thiophene-2-carboxamide] | < 10
18 | Cc1cc(-c2ccccc2)nn1-c1ccc(NC(=O)c2cccs2)cc1[N+](=O)[O-] [N-(4-(5-methyl-3-phenyl-1H-pyrazol-1-yl)-3-nitrophenyl)thiophene-2-carboxamide] | < 10
19 | COc1cc(C(=O)Nc2ccc(Cl)cc2)ccc1-n1nc(C(F)(F)F)cc1C [N-(4-chlorophenyl)-3-methoxy-4-(5-methyl-3-(trifluoromethyl)-1H-pyrazol-1-yl)benzamide] | < 10

Tested on: Jurkat cells and colon cancer cells
Assay: not given
Settings: cited from earlier work
Remark: another data set of the same source

Row | SMILES | inhibition of SOCE
20 | Cc1nnsc1C(=O)Nc1ccc(-n2nc(C(F)(F)F)cc2C(F)(F)F)cc1 [BTP-2] | inhibits
